Where a name gives a salt, the structure may show the parent alone. Read-outs that look alike come from different tables or passages of the source.
Key:
[1] = tested on: HIV-1 (IIIB); test: microbe, parasite or virus in culture; format: cell-based; details: for SI (IIIB): selectivity index, ratio CC50/EC50; for EC50: mean ± SD, n ≥ 3
Excerpt: (§1) Inspired by our previous research on heteroaromatic-biphenyl-DAPYs[15], the 4-cyanophenyl group on the biphenyl moiety was replaced with a privileged 4-pyridyl group for further evaluation.

[2] = tested on: HIV-1 L100I; test: Antiviral activity against HIV-1 mutant L100I in MT-4 cells; format: cell-based
[3] = tested on: HIV-1 E138K; test: Antiviral activity against HIV-1 mutant E138K in MT-4 cells; format: cell-based
[4] = in vitro; details: human, CC50
Excerpt: as §1

[5] = tested on: MT-4 cells; test: in vitro
Excerpt: as §1

[6] = tested on: HIV-1 F227L + V106A; test: microbe, parasite or virus in culture; format: cell-based
[7] = tested on: HIV-1 K103N + Y181C (RES056); test: Antiviral activity against HIV-1 double mutant K103N + Y181C (RES056) in MT-4 cells; format: cell-based
[8] = tested on: HIV-1 K103N; test: Antiviral activity against HIV-1 mutant K103N in MT-4 cells; format: cell-based
[9] = tested on: HIV-1 Y181C; test: Antiviral activity against HIV-1 mutant Y181C in MT-4 cells; format: cell-based
[10] = tested on: HIV-1 Y188L; test: Antiviral activity against HIV-1 mutant Y188L in MT-4 cells; format: cell-based
[11] = target: WT HIV-1 RT (Human immunodeficiency virus type 1 group M subtype B, UniProt P03366); test: Inhibition of WT HIV-1 RT polymerase activity
Protocol: The anti-HIV-1 activity of A1–A24 and B1–B22 at the cellular or enzyme level were evaluated following our previously reported method[15].

[12] = tested on: HIV-1 (IIIB); details: earlier compounds of Fig. 1 / introduction, cited from earlier work; for EC50: WT HIV-1
[13] = tested on: MT-4 cells; details: cited from earlier work
[14] = human liver microsomes; cited from earlier work
[15] = target: T1, CYP2D6 (Homo sapiens, UniProt P10635); test: CYP enzyme inhibition assay, CYP2D6; format: in vitro ADME; details: IC50 CYP2D6, human liver microsomes
T1 construct: An incubation system of human liver microsomes (20 μL, 1.5 mg/mL); from tissue; host or cells: human liver microsomes
Protocol: An incubation system of human liver microsomes (20 μL, 1.5 mg/mL), 20 μL probe substrates, and 50 μL test compound in Tris (0.1 mol/L) was pre-incubated at 37 °C for 10 min, and then initiated by adding NADPH (10 μL, 10 mmol/L). The system was incubated for another 15 min and subsequently terminated by 100 μL MeCN containing internal standard (propranolol, nadolol). Finally, the sample was centrifugated to obtain the supernatant for LC‒MS/MS analysis.

[16] = comparison values; cited from earlier work
[17] = Human immunodeficiency virus 1, MT4, read-out: EC50 L100I
[18] = Human immunodeficiency virus 1, MT4, read-out: EC50 E138K
[19] = Human immunodeficiency virus 1, MT4, read-out: EC50 F227L + V106A
[20] = Human immunodeficiency virus 1, MT4, read-out: EC50 K103N + Y181C
[21] = Human immunodeficiency virus 1, MT4, read-out: EC50 K103N
[22] = Human immunodeficiency virus 1, MT4, read-out: EC50 Y181C
[23] = Human immunodeficiency virus 1, MT4, read-out: EC50 Y188L
[24] = earlier compounds of Fig. 1 / introduction
[25] = WT HIV-1, protection of MT-4 cells against HIV-induced cytopathogenicity
[26] = MT-4 cells, mean ± SD, n ≥ 3, read-out: EC50 L100I
[27] = MT-4 cells, mean ± SD, n ≥ 3, read-out: EC50 E138K
[28] = uninfected MT-4 cells, mean ± SD, n ≥ 3
[29] = MT-4 cells, mean ± SD, n ≥ 3, read-out: EC50 F227L + V106A
[30] = RES056, MT-4 cells, mean ± SD, n ≥ 3, read-out: EC50 K103N + Y181C
[31] = MT-4 cells, mean ± SD, n ≥ 3, read-out: EC50 K103N
[32] = MT-4 cells, mean ± SD, n ≥ 3, read-out: EC50 Y181C
[33] = MT-4 cells, mean ± SD, n ≥ 3, read-out: EC50 Y188L
[34] = Human immunodeficiency virus 1, IIIB, MT4, WT HIV-1, protection of MT-4 cells against HIV-induced cytopathogenicity

T1 sequence (P10635 whole entry): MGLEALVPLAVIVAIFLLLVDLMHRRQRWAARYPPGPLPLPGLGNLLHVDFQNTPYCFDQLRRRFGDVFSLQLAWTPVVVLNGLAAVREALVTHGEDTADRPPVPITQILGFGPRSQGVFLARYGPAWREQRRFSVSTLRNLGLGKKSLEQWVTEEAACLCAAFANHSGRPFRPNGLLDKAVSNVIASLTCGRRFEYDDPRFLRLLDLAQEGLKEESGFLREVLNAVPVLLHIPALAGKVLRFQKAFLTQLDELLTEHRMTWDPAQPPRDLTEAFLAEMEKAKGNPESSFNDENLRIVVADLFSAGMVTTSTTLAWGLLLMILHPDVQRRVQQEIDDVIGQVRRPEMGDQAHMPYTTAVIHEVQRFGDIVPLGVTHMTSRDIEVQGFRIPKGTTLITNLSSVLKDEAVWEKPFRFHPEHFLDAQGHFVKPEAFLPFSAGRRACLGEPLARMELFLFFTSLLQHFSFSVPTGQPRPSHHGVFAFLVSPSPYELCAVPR

Row | Structure (SMILES) | SI (IIIB) [1] | EC50 [2, 17] [nM] | EC50 [3, 18] [nM] | CC50 [4] [nM] | EC50 [6, 19] [nM] | EC50 [7, 20] [nM] | EC50 [8, 21] [nM] | EC50 [9, 22] [nM] | EC50 [10, 23] [nM] | IC50 [11] [nM] | EC50 [1, 34] [nM] | also measured
1 | N#Cc1ccc(Nc2ncc(F)c(Nc3ccc(-c4ccc(C#N)cc4)cc3F)n2)cc1 [A7, 4′-((2-((4-Cyanophenyl)amino)-5-fluoropyrimidin-4-yl)amino)-3′-fluoro-[1,1′-biphenyl]-4-carbonitrile] | >25,806 | 5440 ± 2400 | 35 ± 17 | > 45000 | > 47100 | > 47100 | 68 ± 38 | 259 ± 165 | > 47100 | 28 ± 4.7 |  | CC50 ([5]; human): > 47000 nM
2 | N#Cc1ccc(Nc2nccc(Nc3c(F)cc(-c4ccc(C#N)cc4)cc3F)n2)cc1 [compound 4] |  |  |  |  |  |  |  |  |  |  |  | EC50 [12]: 1.3 nM; SI [12]: > 238,095; CC50 [13, 24]: > 294000 nM
3 | Cc1ccnc2c1NC(=O)c1cccnc1N2C1CC1 [NVP, reference compound] |  |  |  |  |  |  |  |  |  |  |  | EC50 [1, 25]: 188 ± 68 nM; EC50 [2, 26]: 1800 ± 1430 nM; EC50 [3, 27]: 143 ± 38 nM; CC50 [5, 28]: > 15000 nM; EC50 [6, 29]: > 15000 nM; EC50 [7, 30]: > 15000 nM; EC50 [8, 31]: 5860 ± 2780 nM; EC50 [9, 32]: 9010 ± 2630 nM; EC50 [10, 33]: > 15000 nM
4 | CN(c1ccnc(Nc2ccc(C#N)cc2)n1)c1c(F)cc(-c2ccc(C#N)cc2)cc1F [compound 5] |  |  |  |  |  |  |  |  |  |  |  | EC50 [12]: 6.2 nM; SI [12]: 24,067; CC50 [13, 24]: 148000 nM
5 | Cc1cc(/C=C/C#N)cc(C)c1Nc1ccnc(Nc2ccc(C#N)cc2)n1 [RPV, rilpivirine] |  |  |  |  |  |  |  |  |  |  |  | CLint(liver) [14]: 97.6 mL/min/kg; CLint(mic) [14]: 108.4 µL/min/mg; t1/2 [14]: 12.8 min; EC50 [12]: 1 nM; CC50 ([13]; introduction): ~5000 nM
6 | Cc1cc(-c2ccc(C#N)cc2)ccc1Nc1nc(Nc2ccc(C#N)cc2)ncc1F [A9, 4′-((2-((4-Cyanophenyl)amino)-5-fluoropyrimidin-4-yl)amino)-3′-methyl-[1,1′-biphenyl]-4-carbonitrile] |  | 17 ± 6.7 | 10 ± 1.9 |  | 37700 | 24900 | 7.1 ± 1.9 | 9.3 ± 0.7 | 1620 ± 382 | 36 ± 4.8 |  | 
7 | N#Cc1ccc(Nc2ncc(F)c(Oc3ccc(-c4ccc(C#N)cc4)cc3F)n2)cc1 [A1, 4′-((2-((4-Cyanophenyl)amino)-5-fluoropyrimidin-4-yl)oxy)-3′-fluoro-[1,1′-biphenyl]-4-carbonitrile] | >10,870 | 174 ± 49 | 28 ± 12 | > 45000 | > 47000 | > 47000 | 52 ± 42 | 306 ± 117 | > 47000 | 54 ± 9.4 | ≤ 5.3 | EC50 [1, 25]: 4.2 ± 1.4 nM; CC50 ([5]; human): > 47000 nM
8 | Cc1cc(-c2ccc(C#N)cc2)cc(C)c1Nc1ccnc(Nc2ccc(C#N)cc2)n1 [compound 3] |  |  |  |  |  |  |  |  |  |  |  | EC50 [12]: 1 nM; SI [12]: 2,059
9 | N#Cc1ccc(Nc2ncc(Cl)c(Nc3c(F)cc(-c4ccc(C#N)cc4)cc3F)n2)cc1 [B10, 4′-((5-Chloro-2-((4-cyanophenyl)amino)pyrimidin-4-yl)amino)-3′,5′-difluoro-[1,1′-biphenyl]-4-carbonitrile] |  | 17 ± 8.1 | 5.7 ± 2.8 |  | 959 ± 327 | 676 ± 349 | 5 ± 2.4 | 11 ± 1.5 | 187 ± 52 | 31 ± 2.2 |  | 
10 | Cc1cc(-c2ccncc2)cc(C)c1Nc1nc(Nc2ccc(C#N)cc2)ncc1F [A24, 4-((4-((2,6-Dimethyl-4-(pyridin-4-yl)phenyl)amino)-5-fluoropyrimidin-2-yl)amino)benzonitrile] |  | 4.1 ± 3.7 | 8.3 ± 5.4 |  | 244 ± 146 | 63 ± 12 | 1.9 ± 0.5 | 9.3 ± 5.6 | 90 ± 27 | 39 ± 2.4 |  | 
11 | COc1ccc2c(c1)[C@]13CCCC[C@@H]1[C@H](C2)N(C)CC3 [Dextromethorphan, reference compound] |  |  |  |  |  |  |  |  |  |  |  | IC50 [15]: 224 nM
12 | Cc1cc(/C=C/C#N)cc(C)c1Nc1ccnc(Nc2ccc(C#N)cc2)n1 [RPV · HCl, rilpivirine HCl] |  |  |  |  |  |  |  |  |  |  |  | F (oral bioavailability) [16]: 32%
13 | Cc1cc(-c2ccc(C#N)cc2)cc(C)c1Nc1nc(Nc2ccc(C#N)cc2)ncc1Cl [B11, 4′-((5-Chloro-2-((4-cyanophenyl)amino)pyrimidin-4-yl)amino)-3′,5′-dimethyl-[1,1′-biphenyl]-4-carbonitrile] | 47,357 | 5.5 ± 1.8 | 12 ± 6.9 |  | 164 ± 71 | 102 ± 24 | 4.4 ± 1.1 | 9.8 ± 3.3 | 33 ± 6.7 | 53 | ≤ 5.3 | EC50 [1, 25]: 5.3 ± 1.8 nM
14 | O=C1Nc2ccc(Cl)cc2[C@@](C#CC2CC2)(C(F)(F)F)O1 [EFV, reference compound] | >1618 |  |  |  |  |  |  |  |  |  |  | EC50 [1, 25]: 3.8 ± 1 nM; EC50 [2, 26]: 24 ± 9.5 nM; EC50 [3, 27]: 5.4 ± 1.6 nM; CC50 [5, 28]: > 6300 nM; EC50 [6, 29]: 181 ± 89 nM; EC50 [7, 30]: 314 ± 146 nM; EC50 [8, 31]: 60 ± 19 nM; EC50 [9, 32]: 6.3 ± 2.5 nM; EC50 [10, 33]: 244 ± 95 nM
15 | COc1cc(-c2ccc(C#N)cc2)ccc1Oc1nc(Nc2ccc(C#N)cc2)ncc1F [A4, 4′-((2-((4-Cyanophenyl)amino)-5-fluoropyrimidin-4-yl)oxy)-3′-methoxy-[1,1′-biphenyl]-4-carbonitrile] | >16,000 | 41 ± 25 | 7.8 ± 2.3 | > 45000 | ≥ 1600 | > 45700 | 9.4 ± 2.7 | 48 ± 14 | 1370 ± 206 | 46 ± 4.6 | ≤ 5.3 | EC50 [1, 25]: 3 ± 1.1 nM; CC50 ([5]; human): > 46000 nM
16 | N#Cc1ccc(Nc2ncc(F)c(Nc3c(F)cc(-c4ccc(C#N)cc4)cc3F)n2)cc1 [A11, 4′-((2-((4-Cyanophenyl)amino)-5-fluoropyrimidin-4-yl)amino)-3′,5′-difluoro-[1,1′-biphenyl]-4-carbonitrile] | >40,000 | 10 ± 2.9 | 2.5 ± 0.7 | > 45000 | > 45200 | > 45200 | 5 ± 1.1 | 8.1 ± 2 | > 45200 | 27 ± 2.3 |  | 
17 | Cc1cc(-c2ccc(C#N)cc2)ccc1Oc1nc(Nc2ccc(C#N)cc2)ncc1F [A3, 4′-((2-((4-Cyanophenyl)amino)-5-fluoropyrimidin-4-yl)oxy)-3′-methyl-[1,1′-biphenyl]-4-carbonitrile] | >6349 |  |  | > 48000 |  |  |  |  |  |  | 7.6 ± 2.6 | 
18 | Cc1cc(-c2ccncc2)ccc1Nc1nc(Nc2ccc(C#N)cc2)ncc1Cl [B19, 4-((5-Chloro-4-((2-methyl-4-(pyridin-4-yl)phenyl)amino)pyrimidin-2-yl)amino)benzonitrile] | >1122 |  |  | > 48000 |  |  |  |  |  |  | 44 ± 9.7 | 
19 | COc1cc(-c2ccc(C#N)cc2)ccc1Oc1nc(Nc2ccc(C#N)cc2)ncc1Cl [B4, 4′-((5-Chloro-2-((4-cyanophenyl)amino)pyrimidin-4-yl)oxy)-3′-methoxy-[1,1′-biphenyl]-4-carbonitrile] | 412 |  |  | 11000 ± 3700 |  |  |  |  |  |  | 26 ± 13 | 
20 | COc1cc(-c2ccncc2)ccc1Oc1nc(Nc2ccc(C#N)cc2)ncc1F [A16, 4-((5-Fluoro-4-(2-methoxy-4-(pyridin-4-yl)phenoxy)pyrimidin-2-yl)amino)benzonitrile] | >15,094 | 39 ± 9.7 | 13 ± 3.4 | > 45000 | 1230 ± 556 | > 48400 | 12 ± 3.9 | 104 ± 17 | 1520 ± 556 | 34 ± 2.4 | ≤ 5.3 | EC50 [1, 25]: 3.1 ± 2.2 nM; CC50 ([5]; human): > 48000 nM
21 | N#Cc1ccc(Nc2ncc(F)c(Oc3ccc(-c4ccncc4)cc3F)n2)cc1 [A13, 4-((5-Fluoro-4-(2-fluoro-4-(pyridin-4-yl)phenoxy)pyrimidin-2-yl)amino)benzonitrile] | >5147 |  |  | > 50000 |  |  |  |  |  |  | 9.7 ± 3.7 | 
